Read-outs that look alike come from different tables or passages of the source.
Tests used:
[1] = system: subcutaneous HT1080 (FAP−) and HT1080-hFAP (FAP+) tumors; assay: Gamma counting biodistribution in tumor-bearing mice; assay type: in vivo, mouse
Procedure: For tumor-xenograft models, female NMRI nu/nu mice (Janvier, France), 8–9 weeks old, were housed at a constant temperature (22 °C) and relative humidity (40–55%) under a regular light/dark schedule. Food and water were available ad libitum.
Tumor cells (10^6 cells in 50 μL saline) were implanted subcutaneously in the shoulders of NMRI mice with HT1080 wildtype (FAP^−) in one shoulder and with stably transfected human FAP-expressing HT1080 cells (FAP^+) in the contralateral shoulder. Cells were kindly provided by U. Haberkorn, University of Heidelberg. At day 11 after implantation, mice received whole-body PET/MRI (1 T Mediso nanoScan) imaging with list mode PET for 60 min and additional non-contrast-enhanced anatomic, coronal T1-weighted MRI, followed by late static PET/MRI imaging 180 min p.i. Either ^68Ga-OncoFAP or ^68Ga-FAPI-46 (n = 6 each) was injected into the tail vein with a syringe pump at 1000 μL/min in a volume of 100 μL 30 s after the start of PET. At the next day (day 12 after implantation), the same mice were injected with the respective other FAP-tracer and received identical dynamic PET/MRI for 60 min. […] All involved measuring hardware (dose calibrator ISOMED 2010, automatic γ-counter PERKIN ELMER WALAC 2480, Twilite coincidence detector Swisstrace, PET/MRI) were cross-calibrated for ^68Ga. Overall, 3 scans were rejected, because of extravasation (day 11 OncoFAP), inability of i.v. access (day 12 FAPI-46), and insufficient radioactivity (day 12 FAPI-46), respectively. The resulting injected amounts of radioactivity for the remaining 11 ^68Ga-OncoFAP scans and 10 ^68Ga-FAPI-46 scans were 19.2 ± 4.4 MBq and 18.2 ± 4.8 MBq, respectively.

[2] = system: subcutaneous HT1080 (FAP−) and HT1080-hFAP (FAP+) tumors; assay: Pharmacokinetic modeling (2TCM, Patlak) of small animal PET with extracorporeal arterial input function; assay type: in vivo, mouse; set-up: Vs (distribution volume) / k1 / k2 / k3 / k4: unit not given here; conditions: geometric mean ± SD; for Vs (distribution volume) / k1 / k2 / k3 / k3/k4 / k4: 2TCM
Procedure: Before PET/MRI at day 12, p.i. mice received surgery to establish an extracorporeal circulation shunting of the blood from the femoral artery to the tail vein or contralateral femoral vein as described previously. At 40 cm from the femoral artery, the shunt (0.3 mm inner diameter silicon; total extracorporeal volume 56.6 μL) was led through a Twilite coincidence detector. Acquired blood activity curves were calibrated with a separately measured calibration factor for ^68Ga according to vendor’s instructions. The curves were corrected for delay and dispersion based on a numerical deconvolution, using dispersion kernels derived from measuring step functions at defined pumping speeds. Standard 2-tissue compartmental (2TCM) pharmacokinetic (PK) modeling and Patlak analysis was performed for the triceps muscle, and FAP^− and FAP^+ tumors using PMOD version 3.703 (PMOD Technologies LLC) and was based on mean PET VOI time activity curves and Twilite-based extracorporeal arterial input functions (AIF). AIF plasma fraction was calculated based on direct hematocrit measurements after imaging (StatStrip® Hb/Hct, Nova Biomedical).

[3] = system: patients with breast cancer; set-up: method as in PMID 34636633; conditions: previously published patient sample, cited from earlier work

## CN(CCCN1CCN(C(=O)CN2CCN(CC(=O)[O-])CCN(CC(=O)[O-])CCN(CC(=O)[O-])CC2)CC1)c1ccc2nccc(C(=O)NCC(=O)N3CC(F)(F)C[C@H]3C#N)c2c1.[68Ga+3] [^68Ga-FAPI-46, [^68Ga]Ga-FAPI-46]
[1]; gamma counting 1 h p.i.
  organ-to-blood ratio brain: 0.06 ± 0.01
  organ-to-blood ratio heart: 0.36 ± 0.04
  organ-to-blood ratio kidney: 11.58 ± 8.84
  organ-to-blood ratio liver: 0.70 ± 0.23
  organ-to-blood ratio lung: 1.84 ± 1.04
  organ-to-blood ratio muscle: 0.31 ± 0.11
  organ-to-blood ratio spleen: 0.43 ± 0.06
  organ-to-blood ratio tumor FAP+ (tumor-to-blood ratio): 1.98 ± 0.92
  organ-to-blood ratio tumor FAP-: 0.55 ± 0.08
  uptake blood: 0.69 ± 0.15 % ID/g
  uptake heart: 0.25 ± 0.07 % ID/g
  uptake kidney: 8.58 ± 7.52 % ID/g
  uptake liver: 0.46 ± 0.06 % ID/g
  uptake lung: 1.17 ± 0.43 % ID/g
  uptake muscle: 0.21 ± 0.07 % ID/g
  uptake plasma: 1.02 ± 0.30 % ID/g
  uptake spleen: 0.29 ± 0.05 % ID/g
  uptake tumor FAP+: 1.28 ± 0.40 % ID/g
  uptake tumor FAP-: 0.38 ± 0.12 % ID/g
  uptake urine: 525.55 ± 279.13 % ID/g
[1]; gamma counting 3 h p.i.
  organ-to-blood ratio brain: 0.15 ± 0.10
  organ-to-blood ratio heart: 0.51 ± 0.23
  organ-to-blood ratio kidney: 10.39 ± 5.81
  organ-to-blood ratio liver: 1.73 ± 1.28
  organ-to-blood ratio lung: 2.27 ± 1.98
  organ-to-blood ratio muscle: 0.38 ± 0.26
  organ-to-blood ratio spleen: 0.78 ± 0.47
  organ-to-blood ratio tumor FAP+ (tumor-to-blood ratio): 28.62 ± 17.69
  organ-to-blood ratio tumor FAP-: 1.15 ± 0.67
  uptake blood: 0.22 ± 0.31 % ID/g
  uptake brain: 0.01 ± 0.00 % ID/g
  uptake heart: 0.05 ± 0.02 % ID/g
  uptake kidney: 0.98 ± 0.60 % ID/g
  uptake liver: 0.14 ± 0.03 % ID/g
  uptake lung: 0.17 ± 0.06 % ID/g
  uptake muscle: 0.04 ± 0.02 % ID/g
  uptake plasma: 0.38 ± 0.53 % ID/g
  uptake spleen: 0.07 ± 0.02 % ID/g
  uptake tumor FAP+: 2.64 ± 0.60 % ID/g
  uptake tumor FAP-: 0.11 ± 0.03 % ID/g
[2]; tumor FAP+
  Vs (distribution volume): 0.25 ± 0.29
  k1: 0.042 ± 0.012
  k2: 0.298 ± 0.038
  k3: 0.029 ± 0.024
  k3/k4: 1.77 ± 2.74
  k4: 0.017 ± 0.011
  Patlak intercept: 0.176 ± 0.035
  Patlak slope: 0.002 ± 0.001
[2]; tumor FAP+, listed as FAPI-46
  Vs (distribution volume): 0.246 ± 0.287
  k3/k4: 1.770 ± 2.737
[2]; tumor FAP−
  Vs (distribution volume): 0.121 ± 0.227
  k1: 0.049 ± 0.003
  k2: 0.323 ± 0.115
  k3: 0.012 ± 0.031
  k3/k4: 0.801 ± 0.908
  k4: 0.015 ± 0.038
  Patlak intercept: 0.207 ± 0.019
  Patlak slope: 0.000 ± 0.000
[3]
  Blood (prone SUVmean): 1.7 ± 0.2
  Blood (supine SUVmean): 1.3 ± 0.3
  Bone (supine SUVmean): 0.4 ± 0.1
  Breast cancer LN metastasis (supine SUVmax): 12.2 ± 6.2 (n = 13)
  Distant metastases any cancer (supine SUVmax): 12.3 ± 0.2 (n = 2)
  Kidney (supine SUVmean): 1.5 ± 0.4
  Liver (supine SUVmean): 0.9 ± 0.3
  Muscle (supine SUVmean): 1.1 ± 0.2
  Pancreas (supine SUVmean): 1.1 ± 0.4
  Primary breast cancer (prone SUVmax): 14.0 ± 5.7 (n = 17)
  Spleen (supine SUVmean): 1.1 ± 0.8
  Uterus (supine SUVmax): 11.6 ± 4.5 (n = 18)
[3]; listed as FAPI-46
  Uterus (supine SUVmax): 11.6 ± 4.5
